In PubChem BioAssay AID1845228 one finds Papp data, which are given here for 59 compounds.

A value given as a limit tells only on which side of the number the result lay.

For this series the following is noted: pampa; 60.0 min; 50.0 µM.
On to `Cn1nnnc1Sc1ncnc2scc(-c3cccc(C(F)(F)F)c3)c12`, for which the apparent permeability coefficient (Papp) was found to be 296 ×10⁻⁶ cm/s.

`COc1cc(/C=C/C(=O)NCCn2c(C(F)(F)F)cc3ccccc32)cc(OC)c1OC` showed an apparent permeability (Papp) above 300 ×10⁻⁶ cm/s.

Compound `CC1(C)S[C@@H]2[C@H](NC(=O)COc3ccccc3)C(=O)N2[C@H]1C(=O)O` returned an apparent permeability (Papp) of 6 ×10⁻⁶ cm/s.

`O=C1c2c(O)ccc(O)c2C(=O)c2c(NCCNCCO)ccc(NCCNCCO)c21` displayed an apparent permeability (Papp) of 19 ×10⁻⁶ cm/s.

In turn, `CC(C)C[C@H](NC(=O)CNC(=O)c1cc(Cl)ccc1Cl)B1OC(=O)C(CC(=O)O)(CC(=O)O)O1` registered a Papp below 1 ×10⁻⁶ cm/s.

With `COC(=O)N[C@H](C(=O)N1CCC[C@H]1C(=O)Nc1ccc([C@@H]2CC[C@@H](c3ccc(NC(=O)[C@@H]4CCCN4C(=O)[C@@H](NC(=O)OC)C(C)C)cc3)N2c2ccc(C(C)(C)C)cc2)cc1)C(C)C`, the apparent permeability coefficient (Papp) was below 1 ×10⁻⁶ cm/s.

In turn, `c1nc(NC2CCCCCC2)c2cc(CNC[C@H]3CCCO3)sc2n1` registered an apparent permeability (Papp) of 105 ×10⁻⁶ cm/s.

In turn, `O=C(O)C1CCc2cc(C3CCCCC3)c(Cl)cc21` (centres undefined) came in with an apparent permeability (Papp) of 61 ×10⁻⁶ cm/s.

`CC(=O)Nc1c(I)c(C(=O)N[C@H]2C(O)O[C@H](CO)[C@@H](O)[C@@H]2O)c(I)c(N(C)C(C)=O)c1I` (some centres undefined) gave a Papp of 2 ×10⁻⁶ cm/s. This Papp lies about 30-fold lower than the previous one.

Regarding `CSCC[C@H](NC(=O)[C@H](Cc1ccccc1)NC(=O)CNC(=O)CNC(=O)[C@@H](N)Cc1ccc(O)cc1)C(=O)O`, the apparent permeability (Papp) was below 1 ×10⁻⁶ cm/s.

The compound `N=c1c2c(-c3ccccc3)cn(Cc3ccccc3)c2ncn1[C@H](CO)Cc1ccccc1` gave a Papp of 22 ×10⁻⁶ cm/s.

The compound `CCCCCCCCc1ccc(CCC(N)(CO)CO)cc1` gave a Papp below 1 ×10⁻⁶ cm/s.

For `CCN(CC)CCNC(=O)c1c(C)[nH]c(/C=C2\C(=O)Nc3ccc(F)cc32)c1C`, the Papp turned out to be 56 ×10⁻⁶ cm/s.

With `CC(=O)Nc1cccc(-n2c(=O)n(C3CC3)c(=O)c3c(Nc4ccc(I)cc4F)n(C)c(=O)c(C)c32)c1`, the Papp worked out at 259 ×10⁻⁶ cm/s.

For the compound `N=c1c2c(-c3ccccc3)cn(Cc3ccccc3)c2ncn1Cc1ccco1`, the Papp was 226 ×10⁻⁶ cm/s.

Take `COc1ccc(-c2c(Cl)ncn2-c2ccc(S(N)(=O)=O)cc2)cc1F`: the apparent permeability (Papp) was determined as 78 ×10⁻⁶ cm/s.

`Cc1[nH]c2ccccc2c1C1(O)C(=O)N(Cc2ccccc2)c2ccc(Cl)cc21` (centres undefined) came in with an apparent permeability coefficient (Papp) above 300 ×10⁻⁶ cm/s.

For `Cc1ccc(NC(=O)c2ccc(CN3CCN(C)CC3)cc2)cc1Nc1nc(-c2cccnc2)cs1`, the Papp was found to be 100 ×10⁻⁶ cm/s.

`CO/S(=N\S(=O)(=O)c1ccc(Cl)cc1)c1ccc([N+](=O)[O-])cc1` (centres undefined) showed an apparent permeability (Papp) of 4 ×10⁻⁶ cm/s.

On to `NC(=O)[C@H](Cc1ccccc1)NC(=O)[C@H](Cc1ccccc1)NC(=O)[C@@H]1CCCN1C(=O)[C@@H](N)Cc1ccc(O)cc1`, for which the Papp is below 1 ×10⁻⁶ cm/s.

Consider `Cc1cccc(-n2nnnc2S(C)(=O)=O)c1`, for which the Papp worked out at 28.3 ×10⁻⁶ cm/s.

As to `CO/N=C(/C(=O)N[C@@H]1C(=O)N2C(C(=O)O)=CCS[C@H]12)c1csc(N)n1`, the Papp was below 1 ×10⁻⁶ cm/s.

`NC(=O)OC[C@@H]1[C@H](NC(=O)/C(=N\OCC(=O)O)c2csc(N)n2)C(=O)N1S(=O)(=O)O` came in with a Papp below 1 ×10⁻⁶ cm/s.

On to `O=C(NCC1(N2CCN(c3ccccc3)CC2)CCOCC1)c1cccnc1Sc1ccccc1`, for which the apparent permeability (Papp) came out at 207 ×10⁻⁶ cm/s.

`CC(C)C(=O)OCc1cccc(OC(=O)[C@@H]2N3C(=O)[C@@H](NC(=O)Cc4ccccc4)[C@H]3SC2(C)C)c1` displayed an apparent permeability coefficient (Papp) of 84 ×10⁻⁶ cm/s.

As to `Nc1nc(/C(=C/CC(=O)O)C(=O)N[C@@H]2C(=O)N3C(C(=O)O)=CCS[C@H]23)cs1`, the apparent permeability coefficient (Papp) is 18 ×10⁻⁶ cm/s.

On to `N[C@@H](COC(c1cccc(F)c1)c1ccccc1OCc1ccccc1)C(=O)O` (some centres undefined), for which the apparent permeability (Papp) was below 1 ×10⁻⁶ cm/s.

Consider `CC(OC(=O)NCC1(CC(=O)O)CCCCC1)OC(=O)C(C)C` (centres undefined), for which the Papp is 143 ×10⁻⁶ cm/s.

For `O=S(=O)(Nc1cc(Cl)c(Oc2cnc3ccccc3c2)c(Cl)c1)c1ccc(Cl)cc1Cl`, the Papp stood at 24 ×10⁻⁶ cm/s.

For `CC(C)C[C@@H](C(=O)N[C@@H](Cc1ccc(OCc2ccccc2)cc1)C(=O)NC(C)(C)C)N(C)Cc1ccc(C(C)(C)C)cc1`, the Papp is above 300 ×10⁻⁶ cm/s.

The compound `C/C1=C\CC[C@]2(C)O[C@H]2C(=O)c2c(C)coc2C1` returned an apparent permeability coefficient (Papp) of 122 ×10⁻⁶ cm/s.

As to `N=c1c2c(-c3ccccc3)c(-c3ccccc3)n(Cc3ccccc3)c2ncn1CC1CCCO1` (centres undefined), the apparent permeability coefficient (Papp) was determined as 207 ×10⁻⁶ cm/s.

`Cc1ccnc(NC(c2cccc(O)c2)c2ccc3ccc(C)nc3c2O)c1` (centres undefined): the Papp amounted to 115 ×10⁻⁶ cm/s.

For `N=c1c2c(-c3ccccc3)cn(Cc3ccccc3)c2ncn1[C@@H]1CCCC[C@H]1N`, the Papp was 101 ×10⁻⁶ cm/s.

The compound `C/C(=C\c1csc(C)n1)[C@@H]1C[C@@H]2O[C@]2(C)CCC[C@H](C)[C@H](O)[C@@H](C)C(=O)C(C)(C)[C@@H](O)CC(=O)N1` displayed a Papp of 1.7 ×10⁻⁶ cm/s.

`O=C(Nc1ccc(S(=O)(=O)N2CCOCC2)cc1)c1cc(Cl)ccc1NS(=O)(=O)c1ccc(Cl)s1` registered an apparent permeability (Papp) of 85 ×10⁻⁶ cm/s.

As for `CC(C)CNc1ccnc(NCc2csc(-c3ccccc3)n2)n1`, the apparent permeability coefficient (Papp) came out at 228 ×10⁻⁶ cm/s.

`CCN(CC)CCCC(C)Nc1ccnc2cc(Cl)ccc12` (centres undefined): the Papp turned out to be 8 ×10⁻⁶ cm/s.

Compound `CC(=O)OCC1=C(C(=O)O)N2C(=O)[C@@H](NC(=O)[C@H](N)c3ccccc3)[C@H]2SC1` showed a Papp below 1 ×10⁻⁶ cm/s.

In turn, `CN(C)CCn1cnc2c(c(-c3ccccc3)c(-c3ccccc3)n2CCc2ccccc2)c1=N` showed an apparent permeability coefficient (Papp) of 148 ×10⁻⁶ cm/s.

`CC(=CCCC1=CCC(C2=CC(=O)OC2O)OC1O)CCC1=C(C)CCCC1(C)C` (centres undefined) gave a Papp of 9.8 ×10⁻⁶ cm/s.

As to `COc1cccc(-c2csc3ncnc(Sc4nnnn4C)c23)c1`, the apparent permeability (Papp) turned out to be 219 ×10⁻⁶ cm/s.

`C[C@@H]1C[C@@H](O)[C@]2(O)O[C@@H]3C[C@@]4(C=O)C(CC[C@@H]5C4CC[C@]4(C)[C@@H](C6=CC(=O)OC6)CC[C@]54O)C[C@H]3O[C@@H]2O1` (some centres undefined) registered an apparent permeability coefficient (Papp) below 1 ×10⁻⁶ cm/s.

`CCCCOC(=O)NS(=O)(=O)c1sc(CC(C)C)cc1-c1ccc(Cn2ccnc2)cc1` returned a Papp of 180 ×10⁻⁶ cm/s.

In the case of `Cc1oc(=O)oc1COC(=O)N1CC[C@@H](N2CC/C(=C\C3=C(C(=O)O)N4C(=O)[C@@H](NC(=O)/C(=N/O)c5nsc(N)n5)[C@H]4SC3)C2=O)C1`, the Papp was determined as 3 ×10⁻⁶ cm/s.

`Nc1nc2c(s1)CCN(Cc1ccc(Cl)cc1)CC2` returned a Papp of 127 ×10⁻⁶ cm/s. Compared with the last compound, the Papp is about 42-fold higher.

Consider `COc1ccc(Cn2c(-c3ccccc3)c(-c3ccccc3)c3c(=N)n(CCCCO)cnc32)cc1`, for which the apparent permeability (Papp) was determined as 279 ×10⁻⁶ cm/s.

Consider `Clc1ccc(CN[C@H]2CCN(c3ncc(Br)cn3)C2)c(Cl)c1`, for which the Papp is above 300 ×10⁻⁶ cm/s.

For `CNc1ncc(-c2ccc3c(=O)c(C(=O)O)cn(C4CC4)c3c2C)cc1C`, the apparent permeability coefficient (Papp) was 3 ×10⁻⁶ cm/s.

With `COc1cc([C@@H]2c3cc4c(cc3[C@@H](O[C@@H]3O[C@@H]5CO[C@@H](C)O[C@@H]5[C@H](O)[C@@H]3O)[C@H]3COC(=O)[C@H]23)OCO4)cc(OC)c1O`, the apparent permeability (Papp) is 3 ×10⁻⁶ cm/s.

As for `c1ccc(CNCCNCc2ccccc2)cc1`, the Papp was 107 ×10⁻⁶ cm/s.

Consider `CNC1CCC(N(Cc2ccc(OC)c(-c3ccc(C#N)cc3)c2)C(=O)c2sc3ccccc3c2Cl)CC1` (centres undefined), for which the Papp was found to be 234 ×10⁻⁶ cm/s.

`Cn1nnnc1Sc1ncnc2scc(-c3ccc([N+](=O)[O-])cc3)c12` returned a Papp of 93 ×10⁻⁶ cm/s.

As to `CNS(=O)(=O)Cc1ccc2[nH]cc(CCN(C)C)c2c1`, the Papp was below 1 ×10⁻⁶ cm/s.

The compound `OC[C@H]1O[C@@H](n2cnc3c(NCc4ccc(O)cc4)ncnc32)[C@H](O)[C@@H]1O` registered a Papp below 1 ×10⁻⁶ cm/s.

`Cc1[nH]c(/C=C2\C(=O)Nc3ccc(F)cc32)c(C)c1C(=O)NC[C@H](O)CN1CCOCC1` yielded a Papp of 42 ×10⁻⁶ cm/s.

`CCN(CC)CCNc1ccc(C)c2sc3ccccc3c(=O)c12` registered an apparent permeability coefficient (Papp) above 300 ×10⁻⁶ cm/s.

`CC#CC(=O)N1CCC[C@H]1c1nc(-c2ccc(C(=O)Nc3ccccn3)cc2)c2c(N)nccn12` showed an apparent permeability (Papp) below 1 ×10⁻⁶ cm/s.

Compound `Cc1cc(C)nc(NC(=S)N2CCN(c3ccc(C(F)(F)F)cn3)CC2)c1` gave an apparent permeability (Papp) of 137 ×10⁻⁶ cm/s.
